From patent US20060241108A1, “Substituted phenoxazines and acridones as inhibitors of AKT” (St. Jude Children's Research Hospital, priority 2005, published 2006)

How the values were obtained:
Assay type in all cases: cell-based, human
[1] = tested on: AKT; experiment: Inhibition of IGF-I stimulated AKT phosphorylation (Ser473) in Rh1 cells, Western blot; settings: for Inhibition (phosphorylation of AKT at Ser 473): 5 μM, 1 hour, serum starved Rh1 cells, IGF-I 10 ng/ml 10 minutes, average of two experiments; for inhibition of cellular AKT activation: at the concentrations examined in this assay (1-5 μM)
Description: Cell lines and growth conditions. The human cell lines Rh1, Rh18, and Rh30 (ATCC Deposit # CRL 2061) have been described, e.g., by Hazelton et al. Cancer Res 1987;47:4501-4507 and Hosoi et al. Cancer Res. 1999;59:886-894. Rh1, Rh18 and Rh30 cells can each be grown in antibiotic free RPMI-1640 medium (available from BioWhittaker, Walkersville, Md.), supplemented with 10% fetal bovine serum (available from HyClone Laboratories, Logan, Utah) and 2 mM L-glutamine (available from BioWhittaker, Walkersville, Md.) at 37° C. in an atmosphere of 5% CO2. For serum free experiments, cells can be cultured in modified N2E (MN2E) medium (DMEM/F-12, 1:1 mixture) (Sigma, St. Louis, Mo.) supplemented with 1 μg/ml human holo transferrin, 30 nM sodium selenite, 20 nM progesterone, 100 μM putrescine, 30 nM vitamin E phosphate, and 50 μM ethanolamine. Cells in MN2E medium containing 5 μg/ml bovine fibronectin (available from Sigma, St. Louis, Mo.) are preferably plated, and allowed to attach overnight at 37° C. in a humidified, 5% CO2 atmosphere.
(§1) Cellular screening for inhibitors. Rh1, Rh18 and Rh30 cells can each be seeded at a density of 4×10^6/10-cm plate in serum-free medium for overnight attachment. The cells can then be exposed to 0.1% DMSO or to a test compound (for example, a phenoxazine or acridone compound) for one hour, then stimulated with Insulin-like growth factor-I (IGF-I) (10 ng/ml) for 10 minutes.
(§2) Western blot analysis. Cells are rapidly washed with ice-cold phosphate-buffered saline (PBS), placed on ice, and lysed in mammalian protein extraction reagent (M-PER; available from Pierce, Rockford, Ill.) containing one Complete™ mini protease inhibitor tablet (available from Boehringer Mannheim, Mannheim, Germany), 1 mM phenylmethylsulfonyl fluoride, 1 mM Na3VO4 and 1 mM NaF. Cellular debris is pelleted by centrifugation at 17,500×g for 10 minutes at 4° C. The protein concentration of the supernatants is measured by the bicinchoninic acid assay (e.g., using the BCA™ Protein Assay Kit, Pierce, Rockford, Ill., catalog number 23225 or 23227) using bovine serum albumin as the standard.
For the analysis of AKT, ERK-1/2, mTOR, p70S6 kinase, ribosomal protein S6 (rpS6 or S6), and glycogen synthase kinase 3 (GSK-3), equivalent amounts of protein can be separated on a 12% SDS-polyacrylamide gel (available from BioRad, Hercules, Calif.) by electrophoresis and subsequently transferred to a nitrocellulose membrane (also available from BioRad). After a 1 hour incubation in 1×TBS containing 0.05% Tween 20 and 5% blocking reagent (skim milk) (available from Upstate Biotechnology, Lake Placid, N.Y.) at room temperature, the wet nitrocellulose membranes are incubated with appropriate antibodies (available from Cell Signaling Technology, Beverly, Mass.): rabbit polyclonal antiserum specific for the phosphorylated Ser473 or Thr308 of AKT (dilution 1:1000); rabbit polyclonal antiserum specific for phosphorylated Thr202/Tyr204 of ERK-1/2 (dilution 1:1000); rabbit polyclonal antiserum specific for phosphorylated Ser2448 or Ser2481 of mTOR (dilution 1:1000); rabbit polyclonal antiserum specific for phosphorylated Thr389 of p70S6 kinase (dilution 1:4000); rabbit polyclonal antiserum specific for phosphorylated Ser235/236 of rpS6 (dilution 1:1000); or rabbit polyclonal antiserum specific for phosphorylated Ser21/9 of GSK-3α/β (dilution 1:1000). Horseradish peroxidase-conjugated goat anti-rabbit IgG antibody (dilution 1:10,000) can be used as the secondary antibody. Immunoreactive protein can be visualized using Renaissance chemiluminescence reagent (available from Life Science Products Inc., Boston, Mass.).
For these assays, Rh1 cells are seeded in serum-free medium for overnight attachment. The serum starved Rh1 cells are then exposed to 1-5 μM of a compound in Table I for 1 hour before stimulating with IGF-I (10 ng/ml) for 10 minutes. […]

[2] = tested on: Rh1, Rh18 and/or Rh30 cells; experiment: Determination of apoptosis, cell line not specified for the result
From the text: Determination of apoptosis.
Similar experiments can be performed using compounds that are relatively poor inhibitors of AKT in vitro but, preferably, are chemically similar to the phenoxazine or other compounds tested that are effective inhibitors of AKT. For example, the apoptosis of cells in response to the phenoxazine compound 12B or 20B, which are relatively poor inhibitors of AKT in vitro, can be compared to apoptosis of cells in response to the chemically similar compounds 10B and/or 15B, which are effective AKT inhibitors. In this way, a skilled practitioner can evaluate whether apoptosis observed in response to an effective AKT inhibitor (e.g., apoptosis observed in response to compound 10B or 15B) is due to a general toxic effect rather than AKT inhibition.

[3] = tested on: mTOR (Ser2448 and Ser2481), rpS6 (Ser235/236) and p70S6 kinase (Thr389); experiment: IGF-I induced phosphorylation of AKT downstream targets in Rh1 cells, Western blot; settings: 3.5 to 5.0 μM, 1 hour, Rh1 cells serum-free, IGF-I 10 minutes
Description: as §1, §2
For the analysis of AKT, ERK-1/2, mTOR, p70S6 kinase, ribosomal protein S6 (rpS6 or S6), and glycogen synthase kinase 3 (GSK-3), equivalent amounts of protein can be separated on a 12% SDS-polyacrylamide gel (available from BioRad, Hercules, Calif.) by electrophoresis and subsequently transferred to a nitrocellulose membrane (also available from BioRad). […]

Molecule | Inhibition (phosphorylation of AKT at Ser 473) [1] | induction of apoptosis [2] | inhibition of cellular AKT activation [1] | inhibition of IGF-I induced phosphorylation of mTOR, rpS6 and p70S6 kinase [3]
10-(3′-N-piperidinopropyl)-2-chlorophenoxazine [Compound 6B] | ++ (++ ≈ 50% inhibition) | – | – | –
10-(3′-N-pyrrolidinopropyl)-2-chlorophenoxazine [Compound 7B] | +++ (+++ ≈ 75% inhibition) | – | – | –
10-(4′-N-piperidinobutyl)-2-chlorophenoxazine [Compound 13B] | +++ (+++ ≈ 75% inhibition) | significant increase in the proportion of apoptotic cells | – | –
10-(4′-N-piperidinobutyl)-2-trifluoromethylphenoxazine [Compound 13C] | +++ (+++ ≈ 75% inhibition) | – | minimal inhibition | –
10-(4′-N-pyrrolidinobutyl)-2-chlorophenoxazine [Compound 14B] | +++ (+++ ≈ 75% inhibition) | significant increase in the proportion of apoptotic cells | – | –
10-(4′-N-pyrrolidinobutyl)-phenoxazine [Compound 14A] | +++ (+++ ≈ 75% inhibition) | – | minimal inhibition | –
10-[3′-[(β-hydroxyethyl)piperazino]propyl]-2-chlorophenoxazine [Compound 8B] | +++ (+++ ≈ 75% inhibition) | – | – | markedly inhibited
10-[4′-[(β-hydroxyethyl piperazino]butyl]-phenoxazine [Compound 15A] | +++ (+++ ≈ 75% inhibition) | – | minimal inhibition | –
10-[[(β-hydroxyethyl) piperazino]acetyl]-2-chlorophenoxazine [Compound 21B] | −−− (−−− <25% inhibition) | – | – | –
Clc1ccc2c(c1)Nc1ccccc1O2 [Compound 1B, 2-chlorophenoxazine] | + (+ ≈ 25% inhibition) | – | – | –
ClCCCN1c2ccccc2Oc2ccc(Cl)cc21 [Compound 2B, 10-(3′-chloropropyl)-2-chlorophenoxazine] | −−− (−−− <25% inhibition) | – | – | –
CCN(CC)CCCN1c2ccccc2Oc2ccc(Cl)cc21 [Compound 3B, 10-[3′-(N-diethylamino)-propyl]-2-chlorophenoxazine] | ++ (++ ≈ 50% inhibition) | – | – | –
OCCN(CCO)CCCN1c2ccccc2Oc2ccccc21 [Compound 4A, 10-[3′-[N-bis(hydroxyethyl)amino]propyl]phenoxazine] | ++ (++ ≈ 50% inhibition) | – | minimal inhibition | –
OCCN(CCO)CCCN1c2ccccc2Oc2ccc(Cl)cc21 [Compound 4B, 10-[3′-[N-bis(hydroxyethyl)amino]propyl]-2-chlorophenoxazine] | ++ (++ ≈ 50% inhibition) | – | – | –
Clc1ccc2c(c1)N(CCCN1CCOCC1)c1ccccc1O2 [Compound 5B, 10-(3′-N-morpholinopropyl)-2-chlorophenoxazine] | −−− (−−− <25% inhibition) | – | – | –
FC(F)(F)c1ccc2c(c1)N(CCCN1CCOCC1)c1ccccc1O2 [Compound 5C, 10-(3′-N-morpholinopropyl)-2-trifluoromethylphenoxazine] | −−− (−−− <25% inhibition) | – | minimal inhibition | –
c1ccc2c(c1)Oc1ccccc1N2CCCN1CCCC1 [Compound 8A, 10-(3′-N-pyrrolidinopropyl)-phenoxazine] | ++ (++ ≈ 50% inhibition) | – | minimal inhibition | –
ClCCCCN1c2ccccc2Oc2ccc(Cl)cc21 [Compound 9B, 10-(4′-chlorobutyl)-2-chlorophenoxazine] | −−− (−−− <25% inhibition) | – | – | –
OCCN(CCO)CCCCN1c2ccccc2Oc2ccccc21 [Compound 11A, 10-[4′-[N-bis(hydroxyethyl)amino]-butyl]phenoxazine] | +++ (+++ ≈ 75% inhibition) | – | minimal inhibition | –
OCCN(CCO)CCCCN1c2ccccc2Oc2ccc(Cl)cc21 [Compound 11B, 10-[4′-[N-bis(hydroxyethyl)amino]butyl]-2-chlorophenoxazine] | +++ (+++ ≈ 75% inhibition) | significant increase in the proportion of apoptotic cells | – | –
OCCN(CCO)CCCCN1c2ccccc2Oc2ccc(C(F)(F)F)cc21 [Compound 11C, 10-[4′-[N-bis(hydroxyethyl)amino]butyl]-2-trifluoromethyl phenoxazine] | +++ (+++ ≈ 75% inhibition) | – | minimal inhibition | –
Clc1ccc2c(c1)N(CCCCN1CCOCC1)c1ccccc1O2 [Compound 12B, 10-(4′-N-morpholinobutyl)-2-chlorophenoxazine] | −−− (−−− <25% inhibition) | neither the compound 12B or 20B | – | –
O=C(CCl)N1c2ccccc2Oc2ccc(Cl)cc21 [Compound 16B, 10-(chloroacetyl)-2-chlorophenoxazine] | −−− (−−− <25% inhibition) | – | – | –
CCN(CC)CC(=O)N1c2ccccc2Oc2ccc(Cl)cc21 [Compound 17B, 10-[(N-diethylamino)acetyl]-2-chlorophenoxazine] | −−− (−−− <25% inhibition) | – | – | –
O=C(CN1CCOCC1)N1c2ccccc2Oc2ccc(Cl)cc21 [Compound 18B, 10-(N-morpholinoacetyl)-2-chlorophenoxazine] | −−− (−−− <25% inhibition) | – | – | –
O=C(CN1CCCCC1)N1c2ccccc2Oc2ccc(Cl)cc21 [Compound 19B, 10-(N-piperidinoacetyl)-2-chlorophenoxazine] | −−− (−−− <25% inhibition) | – | – | –
c1ccc(CNCCCN2c3ccccc3Oc3ccccc32)cc1 [Compound 22A, 10-(3′-N-benzylaminopropyl)-phenoxazine] | +++ (+++ ≈ 75% inhibition) | – | minimal inhibition | –
